Patent publication US20170321163A1, “ENZYME STABILIZERS” (Henkel AG & Co. KGaA, priority 2014, published 2017)

Tested on: protease
Assay: Storage stability of protease in detergent formulation, residual proteolytic activity by AAPF-pNA assay
Assay type: biochemical
Conditions: 1% candidate compound, 1% protease in detergent formulation; stored 8 weeks at 30° C.; AAPF-pNA substrate, 25° C., pH 8.6, 410 nm
Method: The storage stability of protease-containing detergents and cleaning agents was tested for use as enzyme stabilizers in the presence of candidate compounds. For this purpose, the candidate compounds were formulated in the presence of up to 1% (w/w) 1,2-propanediol in a detergent or cleaning agent formulation (see Table 2). The protease (1% PUR) was then added to the formulation, and the formulation stored for 8 weeks at 30° C.
In parallel batches, the proteolytic activity of 1% protease was determined in 4% PG (1,2-propanediol), 85% matrix (see Table 1), then, each following incubation with 1% of the candidate compound (specified in w/w; QS 100% with water) determined in half of the batches in the formulation as indicated in Table 1 by the release of the chromophore para-nitroaniline from the succinyl-alanine-alanine-proline-phenylalanine para-nitroanilide substrate (AAPF-pNA; Bachem L-1400). The release of the pNA caused an increase in the absorbance at 410 nm, the progress over time of which is a measure of enzymatic activity. […]
For evaluation, the initial values for the proteolytic activity of the agent in question were compared to the values determined after storage. […] The stabilizing effect of each tested compound is thus measured as a relative percentage increase in the residual protease activity.

CC(=O)[O-].CCn1cc[n+](C)c1 [1-ethyl-3-methylimidazolium acetate]
Relative residual activity after incubation with KV: 122%
